TGI and GI50 data for 3 compounds are collected here from PubChem BioAssay (NCI).

Some test systems named below: HT29 colon; KM20L2 colon; NCI-H522 lung; NCI/ADR-RES ovarian; DU-145 prostate; MDA-MB-231 breast; TK-10 renal; ACHN renal; SR leukemia.
Test in all cases: inhibition of tumour cell growth, NCI panel, 48 h

SMILES strings stand for the structures. ≈ marks a conversion by molar mass, not a printed value.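 Dose response: 5 concentrations. Exposure: 48 h. Format: 96-well plates. Endpoint: linear interpolation; highest concentration if not reached. Abbreviation: GI50, concentration required for 50% inhibition of growth. TGI: concentration producing complete growth inhibition.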

For `CC(C)c1oc(=O)cc2c1C(O)C1OC(=O)C3(C)C(O)C4OC4C2(C)C13` (configuration not stated), the TGI was 11.1 µM in the experiment on HT29 colon, 12.8 µM with KM20L2 colon, 5.21 µM with NCI-H522 lung and 96.9 µM in the experiment with NCI/ADR-RES ovarian.

In the case of `Cc1nc2nc(C)n(CCN3CCOCC3)c(=O)c2c(-c2cccc([N+](=O)[O-])c2)c1C(=O)CCCCCCCCCCN1CCC(c2ccccc2)(c2ccccc2)CC1`, the figures for the GI50 in the experiment with DU-145 prostate, with MDA-MB-231 breast and with TK-10 renal were 2.51 µg/mL (≈ 3.09 µM), 1.68 µg/mL (≈ 2.07 µM) and 2.41 µg/mL (≈ 2.96 µM), respectively. Besides, the TGI in the experiment with DU-145 prostate came out at 4.56 µg/mL (≈ 5.61 µM); with MDA-MB-231 breast it was 3.53 µg/mL (≈ 4.34 µM); in the experiment on TK-10 renal it was 4.45 µg/mL (≈ 5.47 µM).

In the case of `O=C=C=P(c1ccccc1)(c1ccccc1)c1ccccc1`, the TGI in the experiment on ACHN renal and in the experiment with SR leukemia was greater than 100 µM each time.
